Laboratory results published in US4877792A, “Heteroaryloxy-beta-carboline derivatives, their preparation and their use as medicinal agents” (Schering Aktiengesellschaft, priority 1986, dated 1989).

What was measured:
benzodiazepine receptors = assay: displacement of 3H-flunitrazepam binding, in vitro (rat brain membranes); settings: 3H-flunitrazepam 1.0 nM, 0° C.
[1] = 4-plate assay, anxiolytic activity (Boissier et al.); format: in vivo; settings: Mus musculus, ip; minimum lowest dose which increases locomotor activity of punished mice; i.p.; read-out: Anxiolytic Activity MED
Procedure: The compounds of this invention display especially anxiolytic and anticonvulsive activities. In order to study the anxiolytic effect, the compounds were tested in the 4-plate assay according to the method by Boissier et al., Eur. J. Pharmacol. 4:145-150 ([…]). The table indicates the minimum lowest dose (MED) which increases the locomotor activity of the punished mice after i.p. treatment.

benzodiazepine receptor = assay: inhibition of 3H-flunitrazepam binding in live brain, in vivo (mice); settings: normally i.p., 3H-flunitrazepam i.v. after 15 min

SMILES	Inhibition of 3H-Flunitrazepam Binding IC50 in vitro (benzodiazepine receptors)	minimal effective dose [1]	Inhibition of 3H-Flunitrazepam Binding ED50 in vivo (benzodiazepine receptor)
COCc1c(C(=O)OC(C)C)ncc2[nH]c3ccc(Oc4ccc(Br)cn4)cc3c12	0.75 ng/mL	3.13 mg/kg	2.7 mg/kg
CCc1noc(-c2cc3c(cn2)[nH]c2cccc(Oc4ncccn4)c23)n1	0.28 ng/mL	3.13 mg/kg	2.8 mg/kg
